Results on two compounds are retold here after BindingDB's records for patent US9388210 (Washington University, 2016).

The target of the assay is Gamma-aminobutyric acid receptor subunit alpha-1/beta-2/gamma-2 (Rattus norvegicus, UniProt P18508+P62813+P63138). Kind of assay: [35S]TBPS Binding Assay. Conditions: pH 7.4; 25 °C. On the procedure: Briefly, aliquots of membrane solution (0.5 mg/mL final protein concentration in assay) were incubated with 5 μM GABA, 2 nM [35S]TBPS (45−120 Ci/mmol), and 5 μL aliquots of steroid in DMSO solution (final assay concentrations ranged from 1 nM to 10 μM), and brought to a final volume of 1 mL with 200 mM NaCl, 50 mM potassium phosphate buffer, pH 7.4. […] Assay tubes were incubated for 2 h at room temperature.
Gamma-aminobutyric acid receptor subunit alpha-1/beta-2/gamma-2, sequence (P62813 whole entry): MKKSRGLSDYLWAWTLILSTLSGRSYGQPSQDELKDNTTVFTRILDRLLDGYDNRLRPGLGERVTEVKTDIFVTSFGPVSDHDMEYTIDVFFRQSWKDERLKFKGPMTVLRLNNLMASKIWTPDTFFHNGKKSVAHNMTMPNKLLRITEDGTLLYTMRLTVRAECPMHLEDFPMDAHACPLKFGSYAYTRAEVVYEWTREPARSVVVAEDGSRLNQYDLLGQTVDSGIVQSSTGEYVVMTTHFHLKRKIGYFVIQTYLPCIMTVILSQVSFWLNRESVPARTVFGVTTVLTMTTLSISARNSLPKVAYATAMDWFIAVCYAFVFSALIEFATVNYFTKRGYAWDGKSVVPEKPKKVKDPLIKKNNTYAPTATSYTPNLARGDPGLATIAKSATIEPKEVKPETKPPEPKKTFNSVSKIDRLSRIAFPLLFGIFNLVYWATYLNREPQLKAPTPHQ
Gamma-aminobutyric acid receptor subunit alpha-1/beta-2/gamma-2, sequence (P63138 whole entry): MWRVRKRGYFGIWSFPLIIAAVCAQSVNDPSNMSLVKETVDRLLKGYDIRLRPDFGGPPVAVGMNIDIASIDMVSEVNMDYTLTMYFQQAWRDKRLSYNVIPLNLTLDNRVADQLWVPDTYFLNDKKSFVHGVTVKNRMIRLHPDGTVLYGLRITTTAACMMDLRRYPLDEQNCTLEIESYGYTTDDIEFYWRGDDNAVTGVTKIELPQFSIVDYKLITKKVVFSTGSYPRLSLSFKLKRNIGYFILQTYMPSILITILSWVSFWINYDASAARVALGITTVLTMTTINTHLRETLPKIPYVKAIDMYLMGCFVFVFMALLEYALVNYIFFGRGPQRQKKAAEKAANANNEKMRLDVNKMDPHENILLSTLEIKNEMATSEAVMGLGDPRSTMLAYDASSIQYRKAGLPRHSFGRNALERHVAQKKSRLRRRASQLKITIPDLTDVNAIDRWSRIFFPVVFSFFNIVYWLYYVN
Gamma-aminobutyric acid receptor subunit alpha-1/beta-2/gamma-2, sequence (P18508 whole entry): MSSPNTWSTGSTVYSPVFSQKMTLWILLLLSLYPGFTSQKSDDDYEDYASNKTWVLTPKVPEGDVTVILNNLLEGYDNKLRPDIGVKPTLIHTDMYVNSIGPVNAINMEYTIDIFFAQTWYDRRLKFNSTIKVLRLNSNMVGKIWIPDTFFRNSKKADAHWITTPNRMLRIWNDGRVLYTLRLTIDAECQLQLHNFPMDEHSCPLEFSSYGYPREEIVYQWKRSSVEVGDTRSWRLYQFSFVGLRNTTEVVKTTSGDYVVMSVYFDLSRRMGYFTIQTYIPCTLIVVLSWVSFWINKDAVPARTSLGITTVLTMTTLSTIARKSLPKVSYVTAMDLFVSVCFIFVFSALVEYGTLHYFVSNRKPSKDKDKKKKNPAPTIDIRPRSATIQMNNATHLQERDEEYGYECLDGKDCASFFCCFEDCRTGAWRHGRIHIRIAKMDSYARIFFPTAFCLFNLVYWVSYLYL

Consider `C[C@]12CC[C@@H](O)C[C@@H]1CC[C@H]1[C@@H]3CC[C@H](C=O)[C@@]3(C)CC(=O)[C@@H]12` [US9388210, 5b], for which the IC50 worked out at 770 nM.
With `C[C@]12CC[C@@H](O)C[C@@H]1CC[C@@H]1[C@@H]2C(=O)C[C@]2(C)C(C=O)=CC[C@@H]12` [US9388210, 5a] the figure was 997 nM.

As a reminder, the IC50 is the concentration needed to halve the response being measured. Higher therefore signals a need for much substance.
